Measurements: PubChem BioAssay AID1963837 (Molecular Pharmacology Branch, DTP, NCI, 2024)

Test system: 843126-344-R-J1-PDC complex spheroid viability
Assay: Anticancer human tumor 843126-344-R-J1-PDC patient-derived melanoma cell line growth inhibition [POLQ]
Details: for IC50: curve of first compound; for viability, T/C: stronger effect = lower value
Experimental: Multicellular complex tumor spheroid response to Polymerase (POL) inhibitors (novobiocin, ART-558, RP6685) in combination with a variety of drugs and investigational agents in selected tumor cell lines
The POL inhibitors (novobiocin, ART-558, and RP6685) were evaluated both individually and in combination with standard of care and investigational anticancer small molecules within a complex spheroid model of solid tumors. . Complex spheroids include a stromal component modeled by human endothelial cells (HUVEC) and fibroblasts modeled by human mesenchymal stem cells (MSCs). The concentration ranges selected for each drug and investigational agent were based upon clinically achievable concentrations if the clinical Cmax of the agent was known.
Compounds. The drugs and investigational agents: novobiocin (NSC847541), ART-558 (NSC835418), RP-6685 (NSC848927), peposertib (NSC802822), ceralasertib (NSC780249), elimusertib (NSC800525), camonsertib (NSC841442), AZD-1390 (NSC803789), olaparib (NSC753686), talazoparib (NSC767125), rucaparib (NSC756644), sotorasib (NSC818433), MRTX-1133 (NSC836407), SN-38 (NSC673596), topotecan (NSC609699), epotoside (NSC141540), doxorubicin (NSC123127), gemcitabine (NSC613327), 5-fluorouracil (NSC19893), paclitaxel (NSC125973), vemurafenib (NSC761431), MSA-2 (NSC828583), SN-011 (NSC837082), adavosertib (NSC754352), prexasertib (NSC758257), carboplatin (NSC241240) and oxaliplatin (NSC266046), were obtained from the National Cancer Institute (NCI) Developmental Therapeutics Program Chemical Repository (21). The FDA-approved anticancer drug set is available from the Developmental Therapeutics Program at https://dtp.cancer.gov/organization/dscb/obtaining/. […] The stock solutions were prepared in dimethyl sulfoxide (DMSO, Sigma-Aldrich, St. Louis, MO, cat. D2650), except for the platinum compounds which were prepared in saline (Quality Biological, Gaithersburg, MD, cat. 114-055-101), at 800-fold the tested concentration and stored at -70 degrees C prior to their use. All drugs and investigational agents were tested over a range starting from a high concentration at or near the clinical Cmax and decreasing in half-log increments. If the clinical Cmax for an agent had not been determined, the highest concentration tested was 10 microM, except for SN-38, which was tested at a high concentration of 1 microM.
Cell Culture. All cells were maintained in an incubator at 37 degrees C and 5% CO2 with 95% humidity. The PDC lines were cultured according to standard operating procedures established by the NCI PDMR (https://pdmr.cancer.gov). Table 3 of the manuscript, lists the cell lines along with the number of the three cell types plated to form the mct-spheroids and media for tumor cell growth. After thawing, all PDC lines, except 997537-175-T-J1-PDC and 415267-285-R-J2-PDC, were cultured in Matrigel-coated flasks prepared with a working solution of 1X Ham's F-12 nutrient mix, without supplementation (Thermo Fisher Scientific, cat. 11765054), 100 U/mL penicillin-streptomycin (Thermo Fisher Scientific, cat. 15140122), and 2.5% Matrigel (Corning Inc., Corning, NY, cat. 354248) for the first three passages. The two PDC lines 997537-175-T-J1-PDC and 415267-285-R-J2-PDC were cultured on uncoated flasks. The 857933-349-R-J2-PDC line was cultured in 6C/Colon 1B media containing advanced DMEM/F-12 (Thermo Fisher Scientific, cat. 12634028), 10 mM HEPES (Thermo Fisher Scientific, cat. 15630080), 1X GlutaMAX supplement (Thermo Fisher Scientific, cat. 35050061), 0.1 mg/mL primocin (InvivoGen, San Diego, CA, cat. ant-pm-2), 10% defined fetal bovine serum, heat inactivated (HyClone Laboratories Inc., Logan, UT, cat. SH30070.03HI), 50% L-WRN conditioned media (ATCC, cat. CRL-3276), 1.25 mM N-Acetyl-L-cysteine (Sigma-Aldrich, cat. A9165), 10 mM nicotinamide (Sigma-Aldrich, cat. N0636), 1X B-27 supplement (Thermo Fisher Scientific, cat. 17504044), 1X N-2 supplement (Thermo Fisher Scientific, cat. […]

[1] = second compound 0.0316 µM, first compound 0.0316 µM
[2] = second compound 0.0316 µM, first compound 0.1 µM
[3] = second compound 0.0316 µM, first compound 0.316 µM
[4] = second compound 0.0316 µM, first compound 1 µM
[5] = second compound 0.0316 µM, first compound 3.16 µM
[6] = second compound 0.0316 µM, first compound 10 µM
[7] = second compound 0.1 µM, first compound 0.0316 µM
[8] = second compound 0.1 µM, first compound 0.1 µM
[9] = second compound 0.1 µM, first compound 0.316 µM
[10] = second compound 0.1 µM, first compound 1 µM
[11] = second compound 0.1 µM, first compound 3.16 µM
[12] = second compound 0.1 µM, first compound 10 µM
[13] = second compound 0.316 µM, first compound 0.0316 µM
[14] = second compound 0.316 µM, first compound 0.1 µM
[15] = second compound 0.316 µM, first compound 0.316 µM
[16] = second compound 0.316 µM, first compound 1 µM
[17] = second compound 0.316 µM, first compound 3.16 µM
[18] = second compound 0.316 µM, first compound 10 µM
[19] = second compound 1 µM, first compound 0.0316 µM
[20] = second compound 1 µM, first compound 0.1 µM
[21] = second compound 1 µM, first compound 0.316 µM
[22] = second compound 1 µM, first compound 1 µM
[23] = second compound 1 µM, first compound 3.16 µM
[24] = second compound 1 µM, first compound 10 µM
[25] = second compound 3.16 µM, first compound 0.0316 µM
[26] = second compound 3.16 µM, first compound 0.1 µM
[27] = second compound 3.16 µM, first compound 0.316 µM
[28] = second compound 3.16 µM, first compound 1 µM
[29] = second compound 3.16 µM, first compound 3.16 µM
[30] = second compound 3.16 µM, first compound 10 µM
[31] = second compound 10 µM, first compound 0.0316 µM
[32] = second compound 10 µM, first compound 0.1 µM
[33] = second compound 10 µM, first compound 0.316 µM
[34] = second compound 10 µM, first compound 1 µM
[35] = second compound 10 µM, first compound 3.16 µM
[36] = second compound 10 µM, first compound 10 µM
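For viability, T/C in this document: spheroids exposed to drugs for seven days before readout.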

CCc1cc2c(N3CCc4c(cc(Cn5ccnc5)cc4-c4cn(C)nc4C(F)(F)F)C3=O)ccnc2c(OC)n1 + Nc1ccc(C#CCN(C(=O)Cc2ncc(C(F)(F)F)cc2C(F)(F)F)c2ccc(F)cc2)nn1
IC50 (second compound 0.0316 µM): > 10 µM | IC50 (second compound 0.1 µM): > 10 µM | IC50 (second compound 0.316 µM): > 10 µM | IC50 (second compound 1 µM): > 10 µM | IC50 (second compound 3.16 µM): > 10 µM | IC50 (second compound 10 µM): > 10 µM | viability, T/C [1]: 91.6% | viability, T/C [2]: 90.2% | viability, T/C [3]: 82% | viability, T/C [4]: 86.8% | viability, T/C [5]: 64.7% | viability, T/C [6]: 61.6% | viability, T/C [7]: 107% | viability, T/C [8]: 100% | viability, T/C [9]: 81.5% | viability, T/C [10]: 77.1% | viability, T/C [11]: 88% | viability, T/C [12]: 61.6% | viability, T/C [13]: 101% | viability, T/C [14]: 100% | viability, T/C [15]: 96.6% | viability, T/C [16]: 82.3% | viability, T/C [17]: 72.9% | viability, T/C [18]: 61.5% | viability, T/C [19]: 96.6% | viability, T/C [20]: 99.3% | viability, T/C [21]: 94.4% | viability, T/C [22]: 72.2% | viability, T/C [23]: 88.4% | viability, T/C [24]: 58.2% | viability, T/C [25]: 94.5% | viability, T/C [26]: 90.9% | viability, T/C [27]: 96.7% | viability, T/C [28]: 80.1% | viability, T/C [29]: 82.7% | viability, T/C [30]: 56.8% | viability, T/C [31]: 83% | viability, T/C [32]: 76.6% | viability, T/C [33]: 75.8% | viability, T/C [34]: 73.5% | viability, T/C [35]: 80.2% | viability, T/C [36]: 55.9%

CNCc1ccc(-c2[nH]c3cc(F)cc4c3c2CCNC4=O)cc1 + Nc1ccc(C#CCN(C(=O)Cc2ncc(C(F)(F)F)cc2C(F)(F)F)c2ccc(F)cc2)nn1
IC50 (second compound 0.0316 µM): > 10 µM | IC50 (second compound 0.1 µM): > 10 µM | IC50 (second compound 0.316 µM): > 10 µM | IC50 (second compound 1 µM): > 10 µM | IC50 (second compound 3.16 µM): > 10 µM | IC50 (second compound 10 µM): > 10 µM | viability, T/C [1]: 104% | viability, T/C [2]: 92.1% | viability, T/C [3]: 100% | viability, T/C [4]: 108% | viability, T/C [5]: 98.5% | viability, T/C [6]: 83.4% | viability, T/C [7]: 96.4% | viability, T/C [8]: 103% | viability, T/C [9]: 101% | viability, T/C [10]: 95% | viability, T/C [11]: 94.3% | viability, T/C [12]: 88.5% | viability, T/C [13]: 95.8% | viability, T/C [14]: 105% | viability, T/C [15]: 97.3% | viability, T/C [16]: 103% | viability, T/C [17]: 94.4% | viability, T/C [18]: 84.3% | viability, T/C [19]: 103% | viability, T/C [20]: 103% | viability, T/C [21]: 95.9% | viability, T/C [22]: 117% | viability, T/C [23]: 102% | viability, T/C [24]: 86.3% | viability, T/C [25]: 92.6% | viability, T/C [26]: 86.3% | viability, T/C [27]: 95.2% | viability, T/C [28]: 83.6% | viability, T/C [29]: 98.2% | viability, T/C [30]: 90.9% | viability, T/C [31]: 91.3% | viability, T/C [32]: 89.1% | viability, T/C [33]: 91.9% | viability, T/C [34]: 92.9% | viability, T/C [35]: 91.5% | viability, T/C [36]: 85.9%
